Data published in patent publication US7915282B2, “C2-phenyl-substituted cyclic keto-enols used as pesticides and herbicides” (Bayer Aktiengesellschaft, priority 2000, dated 2011).

Columns and labels:
Type in all cases: in vivo
[1] = test system: peach aphids (Myzus persicae); test: Myzus test; conditions: active compound concentration of 1000 ppm; after 6 days; infested cabbage leaves dipped
Method: [table] To produce a suitable preparation of active compound, 1 part by weight of active compound is mixed with the stated amounts of solvent and emulsifier, and the concentrate is diluted with emulsifier-containing water to the desired concentration. Cabbage leaves (Brassica oleracea) which are heavily infested by the peach aphids (Myzus persicae) are treated by being dipped into the preparation of active compound of the desired concentration. After the desired period of time, the kill in % is determined. 100% means that all aphids have been killed; 0% means that none of the aphids have been killed.

Soya bean [2] = test: Post-emergence test; conditions: 125 g ai/ha, after three weeks
Method: (§1) [table] To produce a suitable preparation of active compound, 1 part by weight of active compound is mixed with the stated amount of solvent, the stated amount of emulsifier is added and the concentrate is diluted with water to the desired concentration. Test plants of a height of 5-15 cm are sprayed with the preparation of active compound such that the particular amounts of active compound desired are applied per unit area. The concentration of the spray liquor is chosen such that the particular amount of active compound desired is applied in 1000 l of water/ha. After three weeks, the degree of damage to the plants is rated in % damage in comparison to the development of the untreated control. The figures denote: [table]

Digitaria [3] = test: Post-emergence test; conditions: after three weeks
Method: as §1

Lolium [4] = test: Post-emergence test; conditions: 125 g ai/ha, after three weeks
Method: as §1

Cotton = test: Post-emergence test; conditions: after three weeks
Method: as §1

Wheat = test: Post-emergence test; conditions: 125 g ai/ha, after three weeks
Method: as §1

Setaria [5] = test: Post-emergence test; conditions: after three weeks
Method: as §1

Soya bean [6] = test: Pre-emergence test; conditions: 125 g ai/ha, after three weeks
Method: (§2) [table] To produce a suitable preparation of active compound, 1 part by weight of active compound is mixed with the stated amount of solvent, the stated amount emulsifier is added and the concentrate is diluted with water to the desired concentration. Seeds of the test plants are sown in normal soil. After about 24 hours, the soil is sprayed with the preparation of active compound such that the particular amounts of active compound desired are applied per unit area. The concentration of the spray liquor is chosen such that the particular amounts of active compound desired are applied in 1000 l of water/ha. After three weeks, the degree of damage to the plants is rated in % damage in comparison to the development of the untreated controls. The figures denote: [table]

Alopecurus [7] = test: Pre-emergence test; conditions: after three weeks
Method: as §2

Sugar beet [8] = test: Pre-emergence test; conditions: 125 g ai/ha, after three weeks
Method: as §2

Digitaria [9] = test: Pre-emergence test; conditions: 125 g ai/ha, after three weeks
Method: as §2

Lolium [10] = test: Pre-emergence test; conditions: 125 g ai/ha, after three weeks
Method: as §2

Veronica = test: Pre-emergence test; conditions: 125 g ai/ha, after three weeks
Method: as §2

Setaria [11] = test: Pre-emergence test; conditions: 125 g ai/ha, after three weeks
Method: as §2

[12] = test system: green rice leaf hopper (Nephotettix cincticeps); test: Nephotettix test; conditions: active compound concentration of 1000 ppm; after 6 days; rice seedlings dipped
Method: [table] To produce a suitable preparation of active compound, 1 part by weight of active compound is mixed with the stated amounts of solvent and emulsifier, and the concentrate is diluted with emulsifier-containing, water to the desired concentration. Rice seedlings (Oryza sativa) are treated by being dipped into the preparation of active compound of the desired concentrated and are populated with the green rice leaf hopper (Nephotettix cincticeps) while the leaves are still moist. After the desired period of time, the kill in % is determined. 100% means that all leaf hoppers have been killed; 0% means that none of the leaf hoppers have been killed.

Avena fatua [13] = test: Post-emergence test; conditions: 15 g ai/ha, after three weeks
Method: as §1

Alopecurus [14] = test: Post-emergence test; conditions: 15 g ai/ha, after three weeks
Method: as §1

Sugar beet [15] = test: Post-emergence test; conditions: after three weeks
Method: as §1

white fly Bemisia tabaci = test: Bemisia test; conditions: active compound concentration of 1000 ppm; after 10 days; infested cotton plants dipped
Method: [table] To produce a suitable preparation of active compound, 1 part by weight of active compound is mixed with the stated amounts of solvent and emulsifier, and the concentrate is diluted with emulsifier-containing water to the desired concentrations. Cotton plants (Gossypium hirsutum) which are infested by eggs, larvae and pupae of the white fly Bemisia tabaci are dipped into a preparation of active compound of the desired concentration. After the desired period of time, the kill in % is determined. 100% means that all animals have been killed; 0% means that none of the animals have been killed.

Avena fatua [16] = test: Pre-emergence test; conditions: after three weeks
Method: as §2

Echinochloa [17] = test: Pre-emergence test; conditions: after three weeks
Method: as §2

Sorghum = test: Post-emergence test; conditions: 125 g ai/ha, after three weeks
Method: as §1

[18] = test system: greenhouse red spider mite (Tetranychus urticae); test: Tetranychus test (OP-resistant/dip treatment); conditions: active compound concentration of 1000 ppm; after 7 days; infested bean plants dipped
Method: [table] To produce a suitable preparation of active compound, 1 part by weight of active compound is mixed with the stated amounts of solvent and emulsifier, and the concentrate is diluted with emulsifier-containing water to the desired concentration. Bean plants (Phaseolus vulgaris) which are heavily infested by all stages of the greenhouse red spider mite (Tetranychus urticae) are dipped into a preparation of active compound of the desired concentration. After the desired period of time, the effect in % is determined. 100% means that all spider mites have been killed; 0% means that none of the spider mites have been killed.

[19] = test system: larvae of the mustard beetle (Phaedon cochleariae); test: Phaedon larvae test; conditions: active compound concentration of 1000 ppm; after 7 days; cabbage leaves dipped
Method: (§3) [table] To produce a suitable preparation of active compound, 1 part by weight of active compound is mixed with the stated amounts of solvent and emulsifier, and the concentrate is diluted with emulsifier-containing water to the desired concentration. Cabbage leaves (Brassica oleracea) are treated by being dipped into the preparation of active compound of the desired concentration and are populated with larvae of the mustard beetle (Phaedon cochleariae) while the leaves are still moist. After the desired period of time, the kill in % is determined. 100% means that all beetle larvae have been killed; 0% means that none of the beetle larvae have been killed.

Galium = test: Post-emergence test; conditions: 125 g ai/ha, after three weeks
Method: as §1

Echinochloa [20] = test: Post-emergence test; conditions: 125 g ai/ha, after three weeks
Method: as §1

[21] = test system: caterpillars of the owlet moth (Plutella xylostella); test: Plutella test; conditions: active compound concentration of 1000 ppm; after 7 days; cabbage leaves dipped
Method: as §3, with “caterpillars” for “larvae”, “owlet moth (Plutella xylostella)” for “mustard beetle (Phaedon cochleariae)”, “caterpillars” for “beetle larvae”

## C=Cc1cc(C)c(C2=C(OC(=O)C(C)(C)C)C3(CCC(OC)CC3)OC2=O)c(C)c1 (stereo not drawn) [Example I-2-b-5]
[1]
  kill in %: 100%

## C=Cc1cc(C)c(C)cc1C1=C(OC(=O)C(C)C)C2(CCC(OC)CC2)OC1=O (stereo not drawn) [Example I-2-b-13]
Soya bean [2]
  % damage Soya bean: 0%
Digitaria [3]; 125 g ai/ha
  % damage Digitaria: 80%
Lolium [4]
  % damage Lolium: 70%
Cotton; 125 g ai/ha
  % damage Cotton: 0%
Wheat
  % damage Wheat: 10%
Setaria [5]; 125 g ai/ha
  % damage Setaria: 95%

## CCc1cc(C)cc(C)c1C1=C(O)C2(CCC(C)CC2)NC1=O (stereo not drawn) [Example I-1-a-9]
Soya bean [6]
  % damage Soya bean: 0%
Alopecurus [7]; 125 g ai/ha
  % damage Alopecurus: 100%
Sugar beet [8]
  % damage Sugar beet: 0%
Digitaria [9]
  % damage Digitaria: 100%
Lolium [10]
  % damage Lolium: 100%
Veronica
  % damage Veronica: 90%
Setaria [11]
  % damage Setaria: 100%
[12]
  kill in %: 100%
Avena fatua [13]
  % damage Avena fatua: 95%
Alopecurus [14]
  % damage Alopecurus: 100%
Sugar beet [15]; 15 g ai/ha
  % damage Sugar beet: 10%
Digitaria [3]; 15 g ai/ha
  % damage Digitaria: 95%
Cotton; 15 g ai/ha
  % damage Cotton: 0%
Setaria [5]; 15 g ai/ha
  % damage Setaria: 100%

## CCc1cc(C)cc(C)c1C1=C(OC(=O)C(C)(C)C)C2(CCCCC2)OC1=O [Example I-2-b-9]
White fly Bemisia tabaci
  kill in %: 100%
[12]
  kill in %: 100%

## CCc1cc(CC)c(C2=C(O)C3(CCC(OC)CC3)NC2=O)c(CC)c1 (stereo not drawn) [Example I-1-a-6]
Avena fatua [16]; 60 g ai/ha
  % damage Avena fatua: 80%
Echinochloa [17]; 60 g ai/ha
  % damage Echinochloa: 90%
Alopecurus [7]; 60 g ai/ha
  % damage Alopecurus: 90%
[1]
  kill in %: 100%
Sorghum
  % damage Sorghum: 100%
Digitaria [3]; 125 g ai/ha
  % damage Digitaria: 95%
Lolium [4]
  % damage Lolium: 80%
Setaria [5]; 125 g ai/ha
  % damage Setaria: 95%

## C=Cc1cc(C)c(C2=C(OC(=O)C(C)(C)C)C3(CCCCC3)OC2=O)c(C)c1 [Example I-2-b-2]
[18]
  kill in %: 100%

## CCc1cc(C)c(C2=C(O)C3(CCC(OC)CC3)NC2=O)c(CC)c1 (stereo not drawn) [Example I-1-a-3]
[19]
  kill in %: 100%
Avena fatua [16]; 125 g ai/ha
  % damage Avena fatua: 95%
Echinochloa [17]; 125 g ai/ha
  % damage Echinochloa: 100%
Alopecurus [7]; 125 g ai/ha
  % damage Alopecurus: 100%
Digitaria [9]
  % damage Digitaria: 100%
Lolium [10]
  % damage Lolium: 100%
Setaria [11]
  % damage Setaria: 100%
[12]
  kill in %: 100%
Digitaria [3]; 125 g ai/ha
  % damage Digitaria: 80%
Lolium [4]
  % damage Lolium: 70%
Galium
  % damage Galium: 80%
Setaria [5]; 125 g ai/ha
  % damage Setaria: 90%
[18]
  kill in %: 100%

## C=Cc1cc(C)c(C2=C(OC(=O)C(C)CC)C3(CCC(OC)CC3)OC2=O)cc1C (stereo not drawn) [Example I-2-b-12]
Soya bean [2]
  % damage Soya bean: 0%
Digitaria [3]; 125 g ai/ha
  % damage Digitaria: 95%
Lolium [4]
  % damage Lolium: 90%
Cotton; 125 g ai/ha
  % damage Cotton: 0%
Setaria [5]; 125 g ai/ha
  % damage Setaria: 95%

## CCc1cc(CC)c(C2=C(OC(=O)C(C)CC)C3(CCC(OC)CC3)OC2=O)c(CC)c1 (stereo not drawn) [Example I-2-b-11]
[18]
  kill in %: 100%

## CCc1cc(C)c(C2=C(O)C(C)(C)NC2=O)c(CC)c1 [Example I-1-a-1]
[12]
  kill in %: 100%

## C=Cc1cc(C)cc(C)c1C1=C(OC(=O)C(C)(C)C)C2(CCC(OC)CC2)OC1=O (stereo not drawn) [Example I-2-b-8]
[19]
  kill in %: 100%
[18]
  kill in %: 100%

## CCc1cc(C)cc(C)c1-c1c(O)c(C)c(-c2ccc(F)cc2)oc1=O [Example I-4-a-1]
[19]
  kill in %: 100%
Soya bean [6]
  % damage Soya bean: 0%
Alopecurus [7]; 125 g ai/ha
  % damage Alopecurus: 100%
Sugar beet [8]
  % damage Sugar beet: 0%
Digitaria [9]
  % damage Digitaria: 100%
Lolium [10]
  % damage Lolium: 100%
Veronica
  % damage Veronica: 95%
Setaria [11]
  % damage Setaria: 100%
[1]
  kill in %: 100%
[12]
  kill in %: 100%
Echinochloa [20]
  % damage Echinochloa: 90%
Sugar beet [15]; 125 g ai/ha
  % damage Sugar beet: 0%
Sorghum
  % damage Sorghum: 90%
Digitaria [3]; 125 g ai/ha
  % damage Digitaria: 100%
Cotton; 125 g ai/ha
  % damage Cotton: 0%
Wheat
  % damage Wheat: 20%
Setaria [5]; 125 g ai/ha
  % damage Setaria: 95%
[21]
  kill in %: 100%
[18]
  kill in %: 100%

## C=Cc1cc(C)c(C2=C(OC(=O)C(C)(C)C)C3(CCC(C)CC3)OC2=O)c(C)c1 (stereo not drawn) [Example I-2-b-6]
[19]
  kill in %: 100%
[1]
  kill in %: 100%
